± gives the uncertainty stated by the source.
Assay: xn = mol fraction of the nth substance listed

CNC=O + O
viscosity [mPa·s]
Conditions	298 K	298.15 K	303 K	303.15 K	308.15 K	313.15 K	318.15 K	323.15 K
101 kPa, x1 = 0.0328	1.05 ± 0.0093	–	0.9456 ± 0.0084	–	–	–	–	–
101 kPa, x1 = 0.1	–	1.384 ± 0.021	–	1.219 ± 0.019	1.083 ± 0.017	0.9687 ± 0.016	0.871 ± 0.014	–
101 kPa, x1 = 0.1158	1.305 ± 0.012	–	1.176 ± 0.01	–	–	–	–	–
101 kPa, x1 = 0.1999	–	1.754 ± 0.027	–	1.539 ± 0.024	1.363 ± 0.021	1.215 ± 0.019	1.084 ± 0.017	–
101 kPa, x1 = 0.2341	1.573 ± 0.014	–	1.425 ± 0.013	–	–	–	–	–
101 kPa, x1 = 0.3002	–	1.967 ± 0.03	–	1.728 ± 0.026	1.532 ± 0.024	1.366 ± 0.021	1.222 ± 0.019	–
101 kPa, x1 = 0.4001	–	–	–	1.805 ± 0.028	1.608 ± 0.025	1.44 ± 0.023	1.3 ± 0.021	–
101 kPa, x1 = 0.4163	–	–	1.625 ± 0.015	–	–	–	–	–
101 kPa, x1 = 0.4998	–	2.031 ± 0.031	–	1.818 ± 0.028	1.636 ± 0.025	1.472 ± 0.023	1.331 ± 0.021	–
101 kPa, x1 = 0.6006	–	1.975 ± 0.03	–	1.772 ± 0.027	1.59 ± 0.025	1.437 ± 0.023	1.304 ± 0.021	–
101 kPa, x1 = 0.6995	–	1.902 ± 0.029	–	1.712 ± 0.027	1.546 ± 0.024	1.401 ± 0.022	1.273 ± 0.02	–
101 kPa, x1 = 0.7334	1.658 ± 0.016	–	1.5 ± 0.014	–	–	–	–	–
101 kPa, x1 = 0.8	–	1.836 ± 0.029	–	1.658 ± 0.026	1.502 ± 0.024	1.364 ± 0.022	1.243 ± 0.02	–
101 kPa, x1 = 0.8997	–	1.781 ± 0.028	–	1.609 ± 0.026	1.459 ± 0.023	1.327 ± 0.022	1.21 ± 0.02	–
101.33 kPa, x1 = 0.0969	–	–	–	1.216 ± 0.0096	1.086 ± 0.0087	0.974 ± 0.0079	0.8818 ± 0.0073	0.8012 ± 0.0067
101.33 kPa, x1 = 0.2015	–	–	–	1.529 ± 0.012	1.36 ± 0.011	1.219 ± 0.0097	1.098 ± 0.0088	0.9948 ± 0.0081
101.33 kPa, x1 = 0.2996	–	–	–	1.718 ± 0.013	1.531 ± 0.012	1.373 ± 0.011	1.24 ± 0.0099	1.124 ± 0.0091
101.33 kPa, x1 = 0.4005	–	–	–	1.792 ± 0.014	1.603 ± 0.013	1.445 ± 0.012	1.308 ± 0.011	1.187 ± 0.0097
101.33 kPa, x1 = 0.4994	–	–	–	1.789 ± 0.014	1.61 ± 0.013	1.458 ± 0.012	1.327 ± 0.011	1.211 ± 0.01
101.33 kPa, x1 = 0.5995	–	–	–	1.753 ± 0.014	1.576 ± 0.013	1.443 ± 0.012	1.32 ± 0.011	1.21 ± 0.01
101.33 kPa, x1 = 0.6999	–	–	–	1.693 ± 0.014	1.542 ± 0.013	1.412 ± 0.012	1.296 ± 0.011	1.193 ± 0.01
101.33 kPa, x1 = 0.7999	–	–	–	1.649 ± 0.014	1.509 ± 0.013	1.388 ± 0.012	1.279 ± 0.011	1.182 ± 0.01
101.33 kPa, x1 = 0.9001	–	–	–	1.61 ± 0.014	1.478 ± 0.013	1.361 ± 0.012	1.261 ± 0.011	1.164 ± 0.011

OC[C@@H](O)[C@@H](O)[C@H](O)[C@@H](O)CO + O
Conditions	viscosity [mPa·s]
293.15 K, 101 kPa, x1 = 0.0142	1.458 ± 0.023
303.15 K, 101 kPa, x1 = 0.002	0.8134 ± 0.01
303.15 K, 101 kPa, x1 = 0.003592	0.8731 ± 0.015
303.15 K, 101 kPa, x1 = 0.004	0.8647 ± 0.011
303.15 K, 101 kPa, x1 = 0.006	0.916 ± 0.012
303.15 K, 101 kPa, x1 = 0.007154	0.948 ± 0.015
303.15 K, 101 kPa, x1 = 0.0078	0.9637 ± 0.048
303.15 K, 101 kPa, x1 = 0.008	0.9675 ± 0.012
303.15 K, 101 kPa, x1 = 0.0089	0.9962 ± 0.049
303.15 K, 101 kPa, x1 = 0.01	1.019 ± 0.013
303.15 K, 101 kPa, x1 = 0.012	1.071 ± 0.014
303.15 K, 101 kPa, x1 = 0.0122	1.072 ± 0.052
303.15 K, 101 kPa, x1 = 0.0135	1.104 ± 0.054
303.15 K, 101 kPa, x1 = 0.016	1.175 ± 0.015
303.15 K, 101 kPa, x1 = 0.0194	1.277 ± 0.061
303.15 K, 101 kPa, x1 = 0.02	1.279 ± 0.016
303.15 K, 101 kPa, x1 = 0.0228	1.345 ± 0.064
303.15 K, 101 kPa, x1 = 0.024	1.383 ± 0.017
303.15 K, 101 kPa, x1 = 0.026	1.436 ± 0.018
303.15 K, 101 kPa, x1 = 0.028	1.489 ± 0.018
305.15 K, 100 kPa, x1 = 4e-05	0.8093 ± 0.017
305.15 K, 100 kPa, x1 = 7e-05	0.8135 ± 0.017
308.15 K, 101 kPa, x1 = 0.004	0.7869 ± 0.01
308.15 K, 101 kPa, x1 = 0.006	0.8221 ± 0.011
308.15 K, 101 kPa, x1 = 0.008	0.8763 ± 0.011
308.15 K, 101 kPa, x1 = 0.01	0.9231 ± 0.012
308.15 K, 101 kPa, x1 = 0.012	0.9658 ± 0.012
308.15 K, 101 kPa, x1 = 0.014	1.008 ± 0.013
308.15 K, 101 kPa, x1 = 0.016	1.054 ± 0.013
308.15 K, 101 kPa, x1 = 0.018	1.105 ± 0.014
308.15 K, 101 kPa, x1 = 0.02	1.147 ± 0.014
308.15 K, 101 kPa, x1 = 0.022	1.203 ± 0.015
308.15 K, 101 kPa, x1 = 0.024	1.245 ± 0.016
308.15 K, 101 kPa, x1 = 0.026	1.291 ± 0.016
308.15 K, 101 kPa, x1 = 0.028	1.355 ± 0.017
310.15 K, 100 kPa, x1 = 4e-05	0.7489 ± 0.016
310.15 K, 100 kPa, x1 = 7e-05	0.7596 ± 0.016
313.15 K, 101 kPa, x1 = 0.002	0.6825 ± 0.0089
313.15 K, 101 kPa, x1 = 0.004	0.7202 ± 0.0094
313.15 K, 101 kPa, x1 = 0.006	0.7581 ± 0.0098
313.15 K, 101 kPa, x1 = 0.007154	0.7675 ± 0.013
313.15 K, 101 kPa, x1 = 0.0078	0.7956 ± 0.041
313.15 K, 101 kPa, x1 = 0.008	0.7961 ± 0.01
313.15 K, 101 kPa, x1 = 0.0089	0.815 ± 0.041
313.15 K, 101 kPa, x1 = 0.01	0.8344 ± 0.011
313.15 K, 101 kPa, x1 = 0.0107	0.834 ± 0.014
313.15 K, 101 kPa, x1 = 0.012	0.8728 ± 0.011
313.15 K, 101 kPa, x1 = 0.0122	0.8704 ± 0.044
313.15 K, 101 kPa, x1 = 0.014	0.9114 ± 0.012
313.15 K, 101 kPa, x1 = 0.016	0.9502 ± 0.012
313.15 K, 101 kPa, x1 = 0.0169	0.9712 ± 0.048
313.15 K, 101 kPa, x1 = 0.0177	0.9777 ± 0.016
313.15 K, 101 kPa, x1 = 0.018	0.9891 ± 0.013
313.15 K, 101 kPa, x1 = 0.022	1.068 ± 0.013
313.15 K, 101 kPa, x1 = 0.0228	1.077 ± 0.053
313.15 K, 101 kPa, x1 = 0.024	1.107 ± 0.014
313.15 K, 101 kPa, x1 = 0.026	1.147 ± 0.014
313.15 K, 101 kPa, x1 = 0.028	1.187 ± 0.015
315.15 K, 100 kPa, x1 = 4e-05	0.7083 ± 0.015
315.15 K, 100 kPa, x1 = 7e-05	0.7362 ± 0.015
318.15 K, 101 kPa, x1 = 0.004	0.6625 ± 0.0087
318.15 K, 101 kPa, x1 = 0.006	0.6978 ± 0.0091
318.15 K, 101 kPa, x1 = 0.008	0.7286 ± 0.0095
318.15 K, 101 kPa, x1 = 0.01	0.7647 ± 0.0099
318.15 K, 101 kPa, x1 = 0.012	0.796 ± 0.01
318.15 K, 101 kPa, x1 = 0.014	0.8293 ± 0.011
318.15 K, 101 kPa, x1 = 0.016	0.8716 ± 0.011
318.15 K, 101 kPa, x1 = 0.018	0.9013 ± 0.011
318.15 K, 101 kPa, x1 = 0.02	0.9433 ± 0.012
318.15 K, 101 kPa, x1 = 0.022	0.9822 ± 0.012
318.15 K, 101 kPa, x1 = 0.024	1.015 ± 0.013
318.15 K, 101 kPa, x1 = 0.026	1.06 ± 0.013
318.15 K, 101 kPa, x1 = 0.028	1.089 ± 0.014
323.15 K, 101 kPa, x1 = 0.002	0.5854 ± 0.0077
323.15 K, 101 kPa, x1 = 0.003592	0.5894 ± 0.01
323.15 K, 101 kPa, x1 = 0.004	0.6131 ± 0.0081
323.15 K, 101 kPa, x1 = 0.006	0.6414 ± 0.0084
323.15 K, 101 kPa, x1 = 0.0078	0.6663 ± 0.035
323.15 K, 101 kPa, x1 = 0.008	0.6702 ± 0.0087
323.15 K, 101 kPa, x1 = 0.0089	0.685 ± 0.036
323.15 K, 101 kPa, x1 = 0.01	0.6996 ± 0.0091
323.15 K, 101 kPa, x1 = 0.0103	0.7078 ± 0.037
323.15 K, 101 kPa, x1 = 0.0107	0.6878 ± 0.012
323.15 K, 101 kPa, x1 = 0.0112	0.716 ± 0.037
323.15 K, 101 kPa, x1 = 0.012	0.7295 ± 0.0094
323.15 K, 101 kPa, x1 = 0.0122	0.7288 ± 0.038
323.15 K, 101 kPa, x1 = 0.014	0.76 ± 0.0098
323.15 K, 101 kPa, x1 = 0.0142	0.7324 ± 0.012
323.15 K, 101 kPa, x1 = 0.015	0.7741 ± 0.04
323.15 K, 101 kPa, x1 = 0.016	0.791 ± 0.01
323.15 K, 101 kPa, x1 = 0.0169	0.8041 ± 0.041
323.15 K, 101 kPa, x1 = 0.0177	0.7979 ± 0.013
323.15 K, 101 kPa, x1 = 0.018	0.8226 ± 0.01
323.15 K, 101 kPa, x1 = 0.0194	0.8507 ± 0.043
323.15 K, 101 kPa, x1 = 0.02	0.8547 ± 0.011
323.15 K, 101 kPa, x1 = 0.022	0.8874 ± 0.011
323.15 K, 101 kPa, x1 = 0.0228	0.8982 ± 0.045
323.15 K, 101 kPa, x1 = 0.024	0.9206 ± 0.012
323.15 K, 101 kPa, x1 = 0.026	0.9544 ± 0.012
323.15 K, 101 kPa, x1 = 0.028	0.9887 ± 0.013
